Laboratory results from patent US9974761B2, “Medications for deposition on biological surfaces” (The Procter & Gamble Company, priority 2014, dated 2018).

Legend:
[1] = Sensation reported by panelists; type: in vivo; settings: perceived sensation, in words
human TRPM8 = assay: TRPM8 Protocol-FLIPR Assay (intracellular Ca2+); type: cell-based; settings: for TRPM8 Time Course Activity 50 sec % of WS5 / TRPM8 Time Course Activity 3 min % of WS5 / TRPM8 Time Course Activity 5 min % of WS5 / TRPM8 Time Course Activity 10 min % of WS5: vs 30 uM WS-5; for TRPM8 Time Course Activity 50 sec: fluorescence at 50 sec; for TRPM8 Time Course Activity 3 min: fluorescence at 3 min; for TRPM8 Time Course Activity 5 min: fluorescence at 5 min; for TRPM8 Time Course Activity 10 min: fluorescence at 10 min

CC(C)[C@@H]1CC[C@@H](C)C[C@H]1C(=O)NCC(NC(=O)[C@@H](C)N)c1ccccc1 (single isomer, unassigned) [Compound 28 fraction 2]
sensation (cooling, warming, burning) [1]: did not provide a cooling response
TRPM8 Time Course Activity 50 sec % of WS5 (human TRPM8; dose 6.1 nM): 19.3%
TRPM8 Time Course Activity 3 min % of WS5 (human TRPM8; dose 6.1 nM): 46.0%
TRPM8 Time Course Activity 5 min % of WS5 (human TRPM8; dose 6.1 nM): 50.3%
TRPM8 Time Course Activity 10 min % of WS5 (human TRPM8; dose 6.1 nM): 50.6%
TRPM8 Time Course Activity 50 sec (human TRPM8; dose 6.1 nM): 1944.0
TRPM8 Time Course Activity 3 min (human TRPM8; dose 6.1 nM): 4350.0
TRPM8 Time Course Activity 5 min (human TRPM8; dose 6.1 nM): 4763.0
TRPM8 Time Course Activity 10 min (human TRPM8; dose 6.1 nM): 4844.0
TRPM8 Time Course Activity 50 sec % of WS5 (human TRPM8; dose 12.2 nM): 18.0%
TRPM8 Time Course Activity 3 min % of WS5 (human TRPM8; dose 12.2 nM): 57.6%
TRPM8 Time Course Activity 5 min % of WS5 (human TRPM8; dose 12.2 nM): 65.7%
TRPM8 Time Course Activity 10 min % of WS5 (human TRPM8; dose 12.2 nM): 71.1%
TRPM8 Time Course Activity 50 sec (human TRPM8; dose 12.2 nM): 1814.0
TRPM8 Time Course Activity 3 min (human TRPM8; dose 12.2 nM): 5446.0
TRPM8 Time Course Activity 5 min (human TRPM8; dose 12.2 nM): 6224.0
TRPM8 Time Course Activity 10 min (human TRPM8; dose 12.2 nM): 6809.0
TRPM8 Time Course Activity 50 sec % of WS5 (human TRPM8; dose 24.4 nM): 23.0%
TRPM8 Time Course Activity 3 min % of WS5 (human TRPM8; dose 24.4 nM): 68.2%
TRPM8 Time Course Activity 5 min % of WS5 (human TRPM8; dose 24.4 nM): 76.3%
TRPM8 Time Course Activity 10 min % of WS5 (human TRPM8; dose 24.4 nM): 82.0%
TRPM8 Time Course Activity 50 sec (human TRPM8; dose 24.4 nM): 2311.0
TRPM8 Time Course Activity 3 min (human TRPM8; dose 24.4 nM): 6441.0
TRPM8 Time Course Activity 5 min (human TRPM8; dose 24.4 nM): 7226.0
TRPM8 Time Course Activity 10 min (human TRPM8; dose 24.4 nM): 7848.0
TRPM8 Time Course Activity 50 sec % of WS5 (human TRPM8; dose 48.8 nM): 24.9%
TRPM8 Time Course Activity 3 min % of WS5 (human TRPM8; dose 48.8 nM): 81.7%
TRPM8 Time Course Activity 5 min % of WS5 (human TRPM8; dose 48.8 nM): 89.6%
TRPM8 Time Course Activity 10 min % of WS5 (human TRPM8; dose 48.8 nM): 97.0%
TRPM8 Time Course Activity 50 sec (human TRPM8; dose 48.8 nM): 2502.0
TRPM8 Time Course Activity 3 min (human TRPM8; dose 48.8 nM): 7721.0
TRPM8 Time Course Activity 5 min (human TRPM8; dose 48.8 nM): 8488.0
TRPM8 Time Course Activity 10 min (human TRPM8; dose 48.8 nM): 9289.0
TRPM8 Time Course Activity 50 sec % of WS5 (human TRPM8; dose 97.6 nM): 49.8%
TRPM8 Time Course Activity 3 min % of WS5 (human TRPM8; dose 97.6 nM): 106.9%
TRPM8 Time Course Activity 5 min % of WS5 (human TRPM8; dose 97.6 nM): 113.5%
TRPM8 Time Course Activity 10 min % of WS5 (human TRPM8; dose 97.6 nM): 118.8%
TRPM8 Time Course Activity 50 sec (human TRPM8; dose 97.6 nM): 5007.0
TRPM8 Time Course Activity 3 min (human TRPM8; dose 97.6 nM): 10101.0
TRPM8 Time Course Activity 5 min (human TRPM8; dose 97.6 nM): 10747.0
TRPM8 Time Course Activity 10 min (human TRPM8; dose 97.6 nM): 11375.0
TRPM8 Time Course Activity 50 sec % of WS5 (human TRPM8; dose 195 nM): 72.4%
TRPM8 Time Course Activity 3 min % of WS5 (human TRPM8; dose 195 nM): 121.5%
TRPM8 Time Course Activity 5 min % of WS5 (human TRPM8; dose 195 nM): 126.8%
TRPM8 Time Course Activity 10 min % of WS5 (human TRPM8; dose 195 nM): 129.8%
TRPM8 Time Course Activity 50 sec (human TRPM8; dose 195 nM): 7287.0
TRPM8 Time Course Activity 3 min (human TRPM8; dose 195 nM): 11477.0
TRPM8 Time Course Activity 5 min (human TRPM8; dose 195 nM): 12007.0
TRPM8 Time Course Activity 10 min (human TRPM8; dose 195 nM): 12427.0
TRPM8 Time Course Activity 50 sec % of WS5 (human TRPM8; dose 390 nM): 87.1%
TRPM8 Time Course Activity 3 min % of WS5 (human TRPM8; dose 390 nM): 126.5%
TRPM8 Time Course Activity 5 min % of WS5 (human TRPM8; dose 390 nM): 129.9%
TRPM8 Time Course Activity 10 min % of WS5 (human TRPM8; dose 390 nM): 136.0%
TRPM8 Time Course Activity 50 sec (human TRPM8; dose 390 nM): 8766.0
TRPM8 Time Course Activity 3 min (human TRPM8; dose 390 nM): 11955.0
TRPM8 Time Course Activity 5 min (human TRPM8; dose 390 nM): 12301.0
TRPM8 Time Course Activity 10 min (human TRPM8; dose 390 nM): 13026.0
TRPM8 Time Course Activity 50 sec % of WS5 (human TRPM8; dose 781 nM): 103.7%
TRPM8 Time Course Activity 3 min % of WS5 (human TRPM8; dose 781 nM): 136.4%
TRPM8 Time Course Activity 5 min % of WS5 (human TRPM8; dose 781 nM): 138.3%
TRPM8 Time Course Activity 10 min % of WS5 (human TRPM8; dose 781 nM): 147.4%
TRPM8 Time Course Activity 50 sec (human TRPM8; dose 781 nM): 10428.0
TRPM8 Time Course Activity 3 min (human TRPM8; dose 781 nM): 12887.0
TRPM8 Time Course Activity 5 min (human TRPM8; dose 781 nM): 13091.0
TRPM8 Time Course Activity 10 min (human TRPM8; dose 781 nM): 14116.0
TRPM8 Time Course Activity 50 sec % of WS5 (human TRPM8; dose 1.563 uM): 112.6%
TRPM8 Time Course Activity 3 min % of WS5 (human TRPM8; dose 1.563 uM): 134.0%
TRPM8 Time Course Activity 5 min % of WS5 (human TRPM8; dose 1.563 uM): 136.8%
TRPM8 Time Course Activity 10 min % of WS5 (human TRPM8; dose 1.563 uM): 145.1%
TRPM8 Time Course Activity 50 sec (human TRPM8; dose 1.563 uM): 11331.0
TRPM8 Time Course Activity 3 min (human TRPM8; dose 1.563 uM): 12663.0
TRPM8 Time Course Activity 5 min (human TRPM8; dose 1.563 uM): 12954.0
TRPM8 Time Course Activity 10 min (human TRPM8; dose 1.563 uM): 13892.0
TRPM8 Time Course Activity 50 sec % of WS5 (human TRPM8; dose 3.125 uM): 116.9%
TRPM8 Time Course Activity 3 min % of WS5 (human TRPM8; dose 3.125 uM): 134.4%
TRPM8 Time Course Activity 5 min % of WS5 (human TRPM8; dose 3.125 uM): 136.6%
TRPM8 Time Course Activity 10 min % of WS5 (human TRPM8; dose 3.125 uM): 145.1%
TRPM8 Time Course Activity 50 sec (human TRPM8; dose 3.125 uM): 11757.0
TRPM8 Time Course Activity 3 min (human TRPM8; dose 3.125 uM): 12699.0
TRPM8 Time Course Activity 5 min (human TRPM8; dose 3.125 uM): 12937.0
TRPM8 Time Course Activity 10 min (human TRPM8; dose 3.125 uM): 13890.0
TRPM8 Time Course Activity 50 sec % of WS5 (human TRPM8; dose 6.25 uM): 121.6%
TRPM8 Time Course Activity 3 min % of WS5 (human TRPM8; dose 6.25 uM): 133.8%
TRPM8 Time Course Activity 5 min % of WS5 (human TRPM8; dose 6.25 uM): 136.2%
TRPM8 Time Course Activity 10 min % of WS5 (human TRPM8; dose 6.25 uM): 144.0%
TRPM8 Time Course Activity 50 sec (human TRPM8; dose 6.25 uM): 12236.0
TRPM8 Time Course Activity 3 min (human TRPM8; dose 6.25 uM): 12644.0
TRPM8 Time Course Activity 5 min (human TRPM8; dose 6.25 uM): 12891.0
TRPM8 Time Course Activity 10 min (human TRPM8; dose 6.25 uM): 13793.0
TRPM8 Time Course Activity 50 sec % of WS5 (human TRPM8; dose 12.5 uM): 123.4%
TRPM8 Time Course Activity 3 min % of WS5 (human TRPM8; dose 12.5 uM): 132.3%
TRPM8 Time Course Activity 5 min % of WS5 (human TRPM8; dose 12.5 uM): 135.2%
TRPM8 Time Course Activity 10 min % of WS5 (human TRPM8; dose 12.5 uM): 143.6%
TRPM8 Time Course Activity 50 sec (human TRPM8; dose 12.5 uM): 12415.0
TRPM8 Time Course Activity 3 min (human TRPM8; dose 12.5 uM): 12501.0
TRPM8 Time Course Activity 5 min (human TRPM8; dose 12.5 uM): 12801.0
TRPM8 Time Course Activity 10 min (human TRPM8; dose 12.5 uM): 13755.0
TRPM8 Time Course Activity 50 sec % of WS5 (human TRPM8; dose 25 uM): 120.4%
TRPM8 Time Course Activity 3 min % of WS5 (human TRPM8; dose 25 uM): 126.9%
TRPM8 Time Course Activity 5 min % of WS5 (human TRPM8; dose 25 uM): 129.7%
TRPM8 Time Course Activity 10 min % of WS5 (human TRPM8; dose 25 uM): 137.2%
TRPM8 Time Course Activity 50 sec (human TRPM8; dose 25 uM): 12110.0
TRPM8 Time Course Activity 3 min (human TRPM8; dose 25 uM): 11993.0
TRPM8 Time Course Activity 5 min (human TRPM8; dose 25 uM): 12284.0
TRPM8 Time Course Activity 10 min (human TRPM8; dose 25 uM): 13140.0
TRPM8 Time Course Activity 50 sec % of WS5 (human TRPM8; dose 50 uM): 125.7%
TRPM8 Time Course Activity 3 min % of WS5 (human TRPM8; dose 50 uM): 130.7%
TRPM8 Time Course Activity 5 min % of WS5 (human TRPM8; dose 50 uM): 133.5%
TRPM8 Time Course Activity 10 min % of WS5 (human TRPM8; dose 50 uM): 137.6%
TRPM8 Time Course Activity 50 sec (human TRPM8; dose 50 uM): 12648.0
TRPM8 Time Course Activity 3 min (human TRPM8; dose 50 uM): 12352.0
TRPM8 Time Course Activity 5 min (human TRPM8; dose 50 uM): 12644.0
TRPM8 Time Course Activity 10 min (human TRPM8; dose 50 uM): 13179.0
TRPM8 Time Course Activity 50 sec % of WS5 (human TRPM8; dose 100 uM): 121.7%
TRPM8 Time Course Activity 3 min % of WS5 (human TRPM8; dose 100 uM): 125.2%
TRPM8 Time Course Activity 5 min % of WS5 (human TRPM8; dose 100 uM): 127.5%
TRPM8 Time Course Activity 10 min % of WS5 (human TRPM8; dose 100 uM): 128.3%
TRPM8 Time Course Activity 50 sec (human TRPM8; dose 100 uM): 12246.0
TRPM8 Time Course Activity 3 min (human TRPM8; dose 100 uM): 11826.0
TRPM8 Time Course Activity 5 min (human TRPM8; dose 100 uM): 12074.0
TRPM8 Time Course Activity 10 min (human TRPM8; dose 100 uM): 12287.0
